Among the data in patent publication US7151105B2, “Inhibitors of Hepatitis C virus RNA-dependent RNA polymerase, and compositions and treatments using the same” (Agouron Pharmaceuticals, Inc., priority 2004, dated 2006) are IC50 values, retold here.

Usually IC50 stands for the concentration that gives 50% inhibition.

T1 sequence (P26663 2420-3010): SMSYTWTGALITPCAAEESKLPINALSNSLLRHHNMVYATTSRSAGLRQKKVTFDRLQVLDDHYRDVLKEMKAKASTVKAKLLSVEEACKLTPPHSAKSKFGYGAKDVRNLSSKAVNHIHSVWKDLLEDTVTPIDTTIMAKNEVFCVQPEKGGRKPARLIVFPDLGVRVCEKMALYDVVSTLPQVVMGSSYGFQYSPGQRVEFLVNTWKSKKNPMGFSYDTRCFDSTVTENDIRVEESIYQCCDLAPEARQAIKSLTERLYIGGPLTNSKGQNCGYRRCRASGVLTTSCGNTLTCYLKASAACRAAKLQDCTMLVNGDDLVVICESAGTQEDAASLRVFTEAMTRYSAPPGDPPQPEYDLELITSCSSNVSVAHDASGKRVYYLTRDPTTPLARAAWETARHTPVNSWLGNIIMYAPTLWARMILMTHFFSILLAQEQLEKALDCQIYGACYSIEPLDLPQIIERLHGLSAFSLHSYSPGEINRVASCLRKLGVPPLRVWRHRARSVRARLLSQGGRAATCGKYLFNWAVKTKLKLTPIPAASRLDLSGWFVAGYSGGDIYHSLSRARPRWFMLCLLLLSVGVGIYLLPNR

This test concerns the target T1, Recombinant HCV polymerase (Hepatitis C virus genotype 1b, UniProt P26663).
T1 construct: Recombinant HCV polymerase was tested for its ability to perform primer/template-directed transcription
In words: biochemical. The settings on record: inhibition of polymerase-directed transcription; 30 min at 30° C; 30 nM enzyme; cpm data in triplicate. A digest of the protocol: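 Primer/template-directed RNA synthesis by 2.5 pmol HCV polymerase on poly(rC)300/biotin-dG12 with 1 μM GTP plus α-32P-GTP, in pH 7.2 Tris buffer with 10 mM MgCl2, for 30 min at 30 °C. Products were filter-captured and counted, with 1% DMSO final. IC50 was fitted from triplicate cpm; percent inhibition was reported where IC50 was impractical.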
On to `CCc1cc(CCC2(C3CCCC3)CC(O)=C(Cc3nc4nc(C)cc(C)n4n3)C(=O)O2)ccc1-c1ncco1` (single isomer, unassigned; enantiomer 2) [A(139), Enantiomer 2 of 6-Cyclopentyl-3-[(5,7-dimethyl[1,2,4]triazolo[1,5-a]pyrimidin-2-yl)methyl]-6-{2-[3-ethyl-4-(1,3-oxazol-2-yl)phenyl]ethyl}-4-hydroxy-5,6-dihydro-2H-pyran-2-one], for which the IC50 came to 4 nM. Then `CCOc1cnc(CC)cc1CCC1(C2CCCC2)CC(O)=C(Cc2nc3nc(C)cc(C)n3n2)C(=O)O1` (single isomer, unassigned) [A(51), 6-Cyclopentyl-3-[(5,7-dimethyl[1,2,4]triazolo[1,5-a]pyrimidin-2-yl)methyl]-6-[2-(5-ethoxy-2-ethylpyridin-4-yl)ethyl]-4-hydroxy-5,6-dihydro-2H-pyran-2-one], with 3 nM; and `CCc1cc(CCC2(C3CCCC3)CC(O)=C(Cc3nc4nc(C)cc(C)n4n3)C(=O)O2)ccc1OCCNC` (stereo not drawn) [A(72), 6-Cyclopentyl-3-[(5,7-dimethyl[1,2,4]triazolo[1,5-a]pyrimidin-2-yl)methyl]-6-(2-{3-ethyl-4-[2-(methylamino)ethoxy]phenyl}ethyl)-4-hydroxy-5,6-dihydro-2H-pyran-2-one], with 8 nM.

In the case of `CCc1cc(CCC2(C3CCCC3)CC(O)=C(Cc3nc4nc(C)cc(C)n4n3)C(=O)O2)cc(C)n1` (stereo not drawn) [A(35), 6-Cyclopentyl-3-[(5,7-dimethyl[1,2,4]triazolo[1,5-a]pyrimidin-2-yl)methyl]-6-[2-(2-ethyl-6-methylpyridin-4-yl)ethyl]-4-hydroxy-5,6-dihydro-2H-pyran-2-one], the IC50 came to 9 nM. Then `CCc1cc(CCC2(C3CCCC3)CC(=O)CC(=O)O2)ccc1CO` (stereo not drawn) [B(34), 6-Cyclopentyl-6-{2-[3-ethyl-4-(hydroxymethyl)phenyl]ethyl}dihydro-2H-pyran-2,4(3H)-dione], with 1300 nM; and `COc1cc(OC)c(CCC2(C3CCCC3)CC(O)=C(Cc3nc(-c4ccccn4)nn3C)C(=O)O2)cc1Cl` (stereo not drawn) [B(16), 6-[2-(5-Chloro-2,4-dimethoxyphenyl)ethyl]-6-cyclopentyl-4-hydroxy-3-[(1-methyl-3-pyridin-2-yl-1H-1,2,4-triazol-5-yl)methyl]-5,6-dihydro-2H-pyran-2-one], with 53 nM. Then `CCc1cc(CCC2(C3CCCC3)CC(O)=C(Cc3nc4ncc(C)cn4n3)C(=O)O2)ccc1CC#N` (stereo not drawn) [A(103), [4-(2-{2-cyclopentyl-4-hydroxy-5-[(6-methyl[1,2,4]triazolo[1,5-a]pyrimidin-2-yl)methyl]-6-oxo-3,6-dihydro-2H-pyran-2-yl}ethyl)-2-ethylphenyl]acetonitrile], with 3 nM; and `Cc1nn(C)c(C)c1CC1=C(O)CC(CCc2ccc(C(C)(C)C#N)c(F)c2)(C2CCCC2)OC1=O` (stereo not drawn) [A(89)], with 9 nM. With `COc1cc(OC)c(CCC2(C3CCCC3)CC(=O)C(Sc3nc(N)nc4nc[nH]c34)C(=O)O2)cc1Cl` (stereo not drawn) [B(21), 3-[(2-Amino-7H-purin-6-yl)thio]-6-[2-(5-chloro-2,4-dimethoxyphenyl)ethyl]-6-cyclopentyldihydro-2H-pyran-2,4(3H)-dione] the figure was 178 nM; with `COc1cnc(C)cc1CCC1(C2CCCC2)CC(O)=C(Cc2nc3nc(C)cc(C)n3n2)C(=O)O1` (stereo not drawn) [A(8), 6-Cyclopentyl-3-[(5,7-dimethyl[1,2,4]triazolo[1,5-a]pyrimidin-2-yl)methyl]-4-hydroxy-6-[2-(5methoxy-2-methylpyridin-4-yl)ethyl]-5,6-dihydro-2H-pyran-2-one], 99 nM; with `CCc1cc(CCC2(C3CCCC3)CC(O)=C(Cc3nc4nc(C)cc(C)n4n3)C(=O)O2)ccc1-c1ncco1` (stereo not drawn) [A(134), 6-cyclopentyl-3-[(5,7-dimethyl[1,2,4]triazolo[1,5-a]pyrimidin-2-yl)methyl]-6-{2-[3-ethyl-4-(1,3-oxazol-2-yl)phenyl]ethyl}-4-hydroxy-5,6-dihydro-2H-pyran-2-one], 3 nM. For `COc1cc(OC)c(CCC2(C3CCCC3)CC(O)=C(Cc3nc(-c4ccccc4)nn3C)C(=O)O2)cc1Cl` (stereo not drawn) [B(17), 6-[2-(5-Chloro-2,4-dimethoxyphenyl)ethyl]-6-cyclopentyl-4-hydroxy-3-[(1-methyl-3-phenyl-1H-1,2,4-triazol-5-yl)methyl]-5,6-dihydro-2H-pyran-2-one], the IC50 turned out to be 26 nM. In the case of `CCOc1cc(O)c(CC)cc1CCC1(C2CCCC2)CC(O)=C(Cc2nc3ncc(C)cn3n2)C(=O)O1` (single isomer, unassigned) [A(58), 6-Cyclopentyl-6-[2-(2-ethoxy-5-ethyl-4-hydroxyphenyl)ethyl]-4-hydroxy-3-[(6-methyl[1,2,4]triazolo[1,5-a]pyrimidin-2-yl)methyl]-5,6-dihydro-2H-pyran-2-one], the IC50 is 1 nM. With `CCCOc1cc(O)c(CC)cc1CCC1(C2CCCC2)CC(O)=C(Cc2nc3nc(C)cc(C)n3n2)C(=O)O1` (stereo not drawn) [A(1), 6Cyclopentyl-3[(5,7-dimethyl[1,2,4]triazolo[1,5-a]pyrimidin-2-yl)methyl]-6-[2-(5-ethyl-4-hydroxy-2-propoxyphenyl)ethyl]-4-hydroxy-5,6dihydro-2H-pyran-2-one] the figure was 3 nM; with `CCn1nc(C)c(CC2=C(O)CC(CCc3ccc(OC(C)C)c(Cl)c3)(C3CCCC3)OC2=O)c1C` (stereo not drawn) [B(19), 6-[2-(3-chloro-4-isopropoxyphenyl)ethyl]-6-cyclopentyl-3-[(1-ethyl-3,5-dimethyl-1H-pyrazol-4-yl)methyl]-4-hydroxy-5,6-dihydro-2H-pyran-2-one], 1100 nM. Take `Cc1cc(C)n2nc(CC3=C(O)CC(CCc4ccc(C(=O)O)c(Cl)c4)(C4CCCC4)OC3=O)nc2n1` (stereo not drawn) [B(12)]: the IC50 was 110 nM. With `CCc1cc(CCC2(C3CCCC3)CC(O)=C(Cc3nc4nc(C)cc(C)n4n3)C(=O)O2)ccc1C` (stereo not drawn) [A(111), 6-Cyclopentyl-3[(5,7-dimethyl[1,2,4]triazolo[1,5-a]pyrimidin-2-yl)methyl]-6-[2-(3-ethyl-4-methylphenyl)ethyl]-4-hydroxy-5,6dihydro-2H-pyran-2-one] the figure was 5 nM; with `CCOc1cc(O)c(CC)cc1CCC1(C2CCCC2)CC(O)=C(Cc2nc3ncc(C)cn3n2)C(=O)O1` (stereo not drawn) [A(26), 6-Cyclopentyl-6-[2-(2-ethoxy-5-ethyl-4-hydroxyphenyl)ethyl]-4-hydroxy-3-[(6-methyl[1,2,4]triazolo[1,5-a]pyrimidin-2-yl)methyl]-5,6-dihydro-2H-pyran-2-one], 4 nM. Take `CCCOc1cc(O)c(CC)cc1CCC1(C2CCCC2)CC(O)=C(Cc2nc3ncc(C)cn3n2)C(=O)O1` (stereo not drawn) [A(47), 6-Cyclopentyl-6-[2-(5-ethyl-4-hydroxy-2-propoxyphenyl)ethyl]-4-hydroxy-3-[(6-methyl[1,2,4]triazolo[1,5-a]pyrimidin-2-yl)methyl]-5,6-dihydro-2H-pyran-2-one]: the concentration for half-maximal inhibition (IC50) was found to be 5 nM. Then `CCc1cc(CCC2(C3CCCC3)CC(O)=C(Cc3nc4nc(C)cc(C)n4n3)C(=O)O2)ccc1COC` (stereo not drawn) [A(120), 6-Cyclopentyl-3-[(5,7-dimethyl[1,2,4]triazolo[1,5-a]pyrimidin-2-yl)methyl]-6-{2-[3ethyl-4-(methoxymethyl)phenyl]ethyl}-4-hydroxy-5,6dihydro-2H-pyran-2-one], with 7 nM; and `Cc1cc(C)n2nc(CC3=C(O)CC(CCc4ccc(C(C)(C)O)c(C)c4)(C4CCCC4)OC3=O)nc2n1` (stereo not drawn) [B(32), 6-Cyclopentyl-3-[(5,7-dimethyl[1,2,4]triazolo[1,5-a]pyrimidin-2-yl)methyl]-4-hydroxy-6-{2-[4-(1-hydroxy-1-methylethyl)-3-methylphenyl]ethyl}-5,6-dihydro-2H-pyran-2-one], with 91 nM.

For the molecule `CCC(C#N)(CC)c1ccc(CCC2(C3CCCC3)CC(O)=C(Cc3nc4nc(C)cc(C)n4n3)C(=O)O2)cc1C(F)(F)F` (single isomer, unassigned) [A(155), 2-[4-(2-{2-Cyclopentyl-5-[(5,7-dimethyl[1,2,4]triazolo[1,5-a]pyrimidin-2-yl)methyl]-4-hydroxy-6-oxo-3,6-dihydro-2H-pyran-2-yl}ethyl)-2-(trifluoromethyl)phenyl]-2-ethylbutanenitrile], the IC50 came to 54 nM. Regarding `Cc1cc(C)n2nc(CC3=C(O)CC(CCc4ccc(C5(C#N)CC5)cc4)(C4CCCC4)OC3=O)nc2n1` (stereo not drawn) [A(93), 1-[4(2-{2-Cyclopentyl-5-[(5,7-dimethyl[1,2,4]triazolo[1,5-a]pyrimidin-2-yl)methyl]-4-hydroxy-6-oxo-3,6-dihydro-2H-pyran-2-yl}ethyl)phenyl]cyclopropanecarbonitrile], the IC50 was found to be 6 nM. For `CCCOc1cnc(CC)cc1CCC1(C2CCCC2)CC(O)=C(Cc2nc3ncc(C)cn3n2)C(=O)O1` (stereo not drawn) [A(46), 6-Cyclopentyl-6-[2-(2-ethyl-5-propoxypyridin-4-yl)ethyl]-4-hydroxy-3-[(6-methyl[1,2,4]triazolo[1,5-a]pyrimidin-2-yl)methyl]-5,6-dihydro-2H-pyran-2-one], the IC50 worked out at 6 nM.

For `O=C1CC(=O)OC(CCc2ccc(C(=O)O)c(Cl)c2)(C2CCCC2)C1` (stereo not drawn) [B(10)], the half-maximal inhibitory concentration (IC50) stood at 30000 nM. Then `CCCS(=O)(=O)Nc1ccc(CCC2(C3CCCC3)CC(O)=C(Cc3nc4nc(C)cc(C)n4n3)C(=O)O2)cc1CC` (stereo not drawn) [A(109), N-[4-(2-{2-cyclopentyl-5-[(5,7-dimethyl[1,2,4]triazolo[1,5-a]pyrimidin-2-yl)methyl]-4-hydroxy-6-oxo-3,6-dihydro-2H-pyran-2-yl}ethyl)-2-ethylphenyl]propane-1-sulfonamide], with 6 nM. As for `CCc1cc(CCC2(C3CCCC3)CC(O)=C(Cc3nc4nc(C)cc(C)n4n3)C(=O)O2)c(OCC2CCC2)cc1O` (stereo not drawn) [A(60), 6-{2-[2-(Cyclobutylmethoxy)5-ethyl-4-hydroxyphenyl]ethyl}-6-cyclopentyl-3-[(5,7-dimethyl[1,2,4]triazolo[1,5-a]pyrimidin-2-yl)methyl]-4-hydroxy-5,6-dihydro-2H-pyran-2-one], the 50% inhibitory concentration (IC50) was 3 nM.
